Measured values as given in article PMC5860131, “Identification of natural products as novel ligands for the human 5-HT2C receptor” (Biophysics Reports, 2018).

Legend:
[1] = test system: cortical pyramidal neurons; assay: Whole-cell patch clamp recording of spontaneous synaptic current (SPSC) in brain slices; assay type: cell-based; details: 30 μmol/L compound incubation, 10 μmol/L 5-HT; mouse brain slices
Experimental: 5-HT receptors play important roles in central and peripheral nervous systems. Malfunctions of these receptors have been linked to many neural disorders such as depression and psychosis. The effect of (–)-crebanine on changes in 5-HT induced synaptic transmission was evaluated by electrophysiological recording of mouse brain slices (Jang et al. [2012]). The spontaneous synaptic current (SPSC) of cortical pyramidal neurons was recorded in whole cell mode.
Cortical slices from ICR mouse of both genders (15–21 days) were prepared for electrophysiological recording. In brief, the animals were decapitated and brains were placed in cold sucrose artificial cerebrospinal fluid (sucrose-ASCF, in mmol/L: sucrose 213, KCl 2.5, NaH2PO4 1.25, NaHCO3 26, D-glucose 10, MgSO4 2, CaCl2 2, pH 7.4, 0–4 °C, saturated with 95% O2 and 5% CO2). The brains were cut into 280 or 300 μm slices with a vibratome (Leica VT1200S, Germany); slices were then incubated with ACSF (in mmol/L: NaCl 126, KCl 2.5, NaH2PO4 1.25, NaHCO3 26, D-glucose 25, MgSO4 2, CaCl2 2, pH 7.4, saturated with 95% O2 and 5% CO2) at room temperature for 1 h.
A whole-cell patch clamp technique was used. […] Activity of cortical pyramidal neurons was recorded using an amplifier (HEKA EPC 10 USB, Germany) in the voltage clamp mode. […]

[2] = target: T1, 5-HT2C receptor A222^5.46V (Homo sapiens, UniProt P28335, A222V/DEL255-298/G251D/H250E/H252N/INS299[…]/L248D/M247A/M300L/T253W); assay: Affinity MS assay, 5-HT2C mutant A222V; assay type: binding; details: mutant A222^5.46V, n = 2
T1 construct: the N- and C-terminals were truncated by 39 and 65 residues, respectively; PreScission protease site + 10× His (C); made in house
From the text: (§1) Based on the binding poses predicted by molecular docking, single-point mutations were designed to test their impact on ligand binding. Mutations of several residues include the highly conserved Asp134^3.32, which is known to cause 5-HT1B or 5-HT2B receptors to abolish the monoamine ligand binding as reported in the literature (Wang et al. [2013]). In this study, residues forming hydrophobic interactions with the substitution groups on the aporphine scaffold of (–)-crebanine (1) were selected for mutation as well and they are Thr139^3.37, Gly218^5.42, Ala222^5.46, and Leu209^ECL2. Effects of those mutations were tested with the CPM assay and the affinity MS assay (Table 2). In the affinity MS experiment, relative ligand-binding capacity (represented by binding %) to different mutants and the wild-type receptor was compared. Among the six mutations tested, five of them reduced the binding of (–)-crebanine (1) by more than 40% relative to binding to the wild-type receptor, displaying the importance of hydrophobic interactions. […]
(§2) Four experimental replicates were prepared for each pair of the test ligand and the negative control. […] S/C ratios refer to the ratio of MS response of a specific ligand detected in the 5-HT2C incubation sample versus the control. […]

[3] = target: T2, 5-HT2C receptor G218^5.42S (Homo sapiens, UniProt P28335, DEL255-298/G218S/G251D/H250E/H252N/INS299[…]/L248D/M247A/M300L/T253W); assay: Affinity MS assay, 5-HT2C mutant G218S; assay type: binding
T2 construct: the N- and C-terminals were truncated by 39 and 65 residues, respectively; PreScission protease site + 10× His (C); made in house
From the text: as §1, §2

[4] = target: T3, 5-HT2C receptor (Homo sapiens, UniProt P28335, DEL255-298/G251D/H250E/H252N/INS299[…]/L248D/M247A/M300L/T253W); assay type: binding
T3 construct: the N- and C-terminals were truncated by 39 and 65 residues, respectively; FLAG (N); PreScission protease site + 10× His (C); made in house; host or cells: Spodoptera frugiperda (Sf9), baculovirus
T3 sequence (P28335 with tags, fused parts or gaps with the stated changes limits assumed): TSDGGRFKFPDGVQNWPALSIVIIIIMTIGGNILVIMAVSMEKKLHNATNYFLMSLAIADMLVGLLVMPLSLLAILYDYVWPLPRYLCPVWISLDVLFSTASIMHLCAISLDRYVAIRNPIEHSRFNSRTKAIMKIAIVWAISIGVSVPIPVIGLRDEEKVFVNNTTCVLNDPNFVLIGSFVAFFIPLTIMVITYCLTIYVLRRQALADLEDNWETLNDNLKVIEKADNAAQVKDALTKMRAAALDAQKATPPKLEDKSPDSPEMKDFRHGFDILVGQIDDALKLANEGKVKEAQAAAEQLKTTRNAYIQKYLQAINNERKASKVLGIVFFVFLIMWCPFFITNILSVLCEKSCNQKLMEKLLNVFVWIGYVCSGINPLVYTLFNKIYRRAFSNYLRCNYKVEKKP

T2 sequence (P28335 with tags, fused parts or gaps with the stated changes): as the sequence (P28335 with tags, fused parts or gaps with the stated changes limits assumed) above, with G179S counted along it
T1 sequence (P28335 with tags, fused parts or gaps with the stated changes): as the sequence (P28335 with tags, fused parts or gaps with the stated changes limits assumed) above, with A183V counted along it

`COc1ccc2c(c1OC)C[C@@H]1c3c(cc4c(c3-2)OCO4)CCN1C` [Compound 1, (–)-crebanine] was tested, and the “effect on 5-HT induced SPSC” value [1] was “significantly attenuated”, the “(–)-Crebanine/MS relative ligand binding” value [2] was 25.84% and the “(–)-Crebanine/MS relative ligand binding” value ([3]; mutant G218^5.42S, n = 2) was 6.04%. The “ligand-binding capacity reduction versus wild-type” value ([3]; mutation Gly218^5.42Ser) was “over 60%”, the “thermal shift value (∆Tm)” value ([4]; CPM assay, comparing to apo-protein) was 9.25 °C and the “(–)-Crebanine/CPM (Tm)” value ([4]; WT receptor, n = 2) was 59.93 °C.
